Reference: patent publication US20020049173A1, “Alteration of cellular behavior by antisense modulation of mRNA processing” (priority 1999, published 2002)
In the oligonucleotide strings, read from the 5' end, every base follows the letter of its sugar. An asterisk marks phosphorothioate; unmarked linkages are phosphodiester. Other units and linkages are bracketed, terminal groups are in braces. A string of capitals states the bases alone. e = 2'-O-(2-methoxyethyl) (MOE); [5mC] = 5-methylcytosine; d = 2'-deoxy (DNA)

Tests used:
[1] = test system: murine IL-5 receptor α mRNA, membrane form; assay: Membrane IL-5 receptor α mRNA by Northern blot in BCL1 cells; type: cell-based, mouse; settings: BCL1 cells, 10 μM; for % control membrane IL-5 Rα / % inhib'n membrane IL-5 Rα: 24 hours, uniform 2′-MOE; for % inhibition of membrane IL-5 Rα: Northern blot, compared to untreated control, 2′-MOE gapmers
Description: (§1) Murine BCL1 cells were chosen for screening antisense oligonucleotides targeted to murine IL-5 receptor α. These are B-cell leukemia cells derived from a spontaneously arising tumor of BALB/c origin, and proliferate in response to murine or human IL-5. This is a CD5+line which resembles a subset of human chronic lymphocytic leukemia tumors and secretes IgM upon lipopolysaccharide stimulation. Cells were obtained from the American Type Culture Collection and cultured in RPMI 1640 medium supplemented with 10% heat-inactivated fetal bovine serum (Sigma Chemical Co., St. Louis, Mo.), 10 mM Hepes, pH 7.2, 50 μM 2-ME, 2 mM L-glutamine, 100 U/ml penicillin and 100 μg/ml streptomycin (Gibco, Grand Island, N.Y.).
(§2) The effect of these compounds on both membrane and soluble forms of murine IL-5 receptor α were measured and are shown in Table 1B. Oligonucleotides were screened in BCL1 cells at a dose of 10 μM and IL-5 receptor α mRNA was measured by Northern blot. Percent inhibition is compared to untreated (no oligo) control.
(§3) Total BCL1 cellular RNA was isolated using the RNeasy™ kit (Qiagen, Santa Clara Calif.) . Northern blotting was performed using standard methods. The cDNA probes were generated from oligonucleotides matching the exon sequences of either exons 2, 8, 9 or 10. Signals were quantitated using a Molecular Dynamics PhosphorImager.

[2] = test system: murine IL-5 receptor α mRNA, soluble form; assay: Soluble IL-5 receptor α mRNA by Northern blot in BCL1 cells; type: cell-based, mouse; settings: BCL1 cells, 10 μM; for % control soluble IL-5 Rα: 24 hours, uniform 2′-MOE; for % inhibition of soluble IL-5 Rα: Northern blot, compared to untreated control, 2′-MOE gapmers
Description: as §1, §2, §3

[3] = test system: Human IL-5 receptorα membrane form mRNA; assay: Human IL-5 receptorα membrane form mRNA expression (18 hr); type: cell-based; set-up: % INHIB'N, human IL-5 receptorα membrane form mRNA / % of CONTROL, human IL-5 receptorα membrane form mRNA: concentration or dose not given beside the values; settings: 18 hr
Description: mRNA transcripts encoding the membrane form of the human IL-5 receptorα contain exons 1-10 and 12-14. Exon 11 is spliced out. It is, therefore, possible to target sequences in exons 1-10 which are common to both soluble and membrane forms of the receptor, or to selectively target sequences only present in the membrane form (exons 12-14). Oligonucleotides were also designed to target various intron/exon boundaries downstream of exon 11, with the intention of preventing successful splicing out of exon 11 and thus redirecting splice products away from the membrane form and in favor of the soluble form of IL-5 receptorα.
(§4) A series of oligonucleotides were designed to target various splice sites or (intron-exon boundaries) in the IL-5 receptor mRNA.

Human IL-5 receptorα = Human IL-5 receptorα protein expression on the cell surface (36 hr), TF-1 cells; type: cell-based; set-up: % INHIB, human IL-5 receptorα protein on the cell surface / % of CONTROL, human IL-5 receptorα protein on the cell surface: concentration or dose not given beside the values; settings: for % INHIB, human IL-5 receptorα protein on the cell surface / % of CONTROL, human IL-5 receptorα protein on the cell surface: 36 hr
Description: as §4
ISIS 16746, 16748, 16755 and 16758 inhibited human IL-5 receptorα protein by over 50% in this assay and are therefore preferred. ISIS 16758 and 16755 were chosen for further study.

Substance	% of CONTROL, human IL-5 receptorα membrane form mRNA [3] [%]	% INHIB, human IL-5 receptorα protein on the cell surface (Human IL-5 receptorα)	% of CONTROL, human IL-5 receptorα protein on the cell surface (Human IL-5 receptorα) [%]	% INHIB'N, human IL-5 receptorα membrane form mRNA [3]	further results
21759 (eA*e[5mC]*eT*e[5mC]*eT*eG*e[5mC]*eA*eG*eA*eT*eG*eA*eG*eT*eG*eA*eG*eA*eA; splice-switching) [compound 21759]	–	–	–	–	% control membrane IL-5 Rα [1]: 34%; % inhib'n membrane IL-5 Rα [1]: 66%; % control soluble IL-5 Rα [2]: 134%
16749 (antisense eT*e[5mC]*eA*eA*e[5mC]*eA*eT*eT*eA*e[5mC]*e[5mC]*eT*e[5mC]*eA*eT*eA*eG*eT*eT*eA) [compound 16749]	101	25%	75	–	–
18004 (TGTTGGGAGCACAATGAGAT; antisense; listed as DNA, chemistry not fully specified) [compound 18004]	–	–	–	–	% inhibition of membrane IL-5 Rα [1]: 10%; % inhibition of soluble IL-5 Rα [2]: 20%
16750 (antisense dT*dC*dA*dA*dC*dA*dT*dT*dA*dC*e[5mC]*eT*e[5mC]*eA*eT*eA*eG*eT*eT*eA) [compound 16750]	96	9%	91	4%	–
18007 (eT*eG*e[5mC]*eA*eG*dA*dT*dG*dA*dG*dT*dG*dA*dG*dA*eA*eG*eA*eT*eT; antisense) [compound 18007]	–	–	–	–	% inhibition of membrane IL-5 Rα [1]: 65%; % inhibition of soluble IL-5 Rα [2]: 65%
16746 (antisense eA*e[5mC]*e[5mC]*e[5mC]*eA*eG*e[5mC]*eT*eT*eT*e[5mC]*eT*eG*e[5mC]*eA*eA*eA*eA*e[5mC]*eA) [compound 16746]	36	65%	35	64%	–
16760 (antisense eT*e[5mC]*eA*eT*e[5mC]*dA*dT*dT*dT*dC*dC*dT*dG*dG*dT*eG*eG*eA*eA*eA) [compound 16760]	76	29%	71	24%	–
ISIS 16748: ACCCAGCTTTCTGCAAAACA, SEQ ID 31; human IL-5R I13/E14; 2′-MOE pattern not visible (antisense eA*e[5mC]*e[5mC]*e[5mC]*eA*dG*dC*dT*dT*dT*dC*dT*dG*dC*dA*eA*eA*eA*e[5mC]*eA)	–	over 50%	–	over 50%	–
16748 (antisense ACCCAGCTTTCTGCAAAACA; listed as DNA, chemistry not fully specified) [compound 16748]	25	59.5%	40.5	75%	–
16756 (antisense dG*dA*dA*dC*dA*dC*dT*dT*dA*dC*eA*eT*eT*eT*eT*eA*e[5mC]*eA*eG*eA) [compound 16756]	96	–	101	4%	–
21753 (eA*e[5mC]*eA*eA*eT*eG*eA*eG*eA*eT*eG*e[5mC]*e[5mC]*eA*eT*eT*e[5mC]*eT*eA*e[5mC]; splice-switching) [compound 21753]	–	–	–	–	% control membrane IL-5 Rα [1]: 6%; % inhib'n membrane IL-5 Rα [1]: 94%; % control soluble IL-5 Rα [2]: 175%
16759 (antisense dT*dC*dA*dT*dC*dA*dT*dT*dT*dC*e[5mC]*eT*eG*eG*eT*eG*eG*eA*eA*eA) [compound 16759]	81	24.5%	75.5	19%	–
ISIS 18010: TCAGCATTTACTGGTGTAAA, SEQ ID 37; mismatch of 16758 (antisense eT*e[5mC]*eA*eG*e[5mC]*eA*eT*eT*eT*eA*e[5mC]*eT*eG*eG*eT*eG*eT*eA*eA*eA) [reference compound]	–	–	–	–	inhibition of IL-5 receptorα expression (mismatch controls) (Human IL-5 receptorα; TF-1 cells): did not inhibit
21758 (eT*eG*e[5mC]*eA*eG*eA*eT*eG*eA*eG*eT*eG*eA*eG*eA*eA*eG*eA*eT*eT; splice-switching) [compound 21758]	–	–	–	–	% control membrane IL-5 Rα [1]: 31%; % inhib'n membrane IL-5 Rα [1]: 69%; % control soluble IL-5 Rα [2]: 116%
21760 (e[5mC]*eT*eA*e[5mC]*eA*e[5mC]*eT*e[5mC]*eT*eG*e[5mC]*eA*eG*eA*eT*eG*eA*eG*eT*eG) [compound 21760]	–	–	–	–	% control membrane IL-5 Rα [1]: 55%; % inhib'n membrane IL-5 Rα [1]: 45%; % control soluble IL-5 Rα [2]: 116%
16757 (antisense eG*eA*eA*e[5mC]*eA*dC*dT*dT*dA*dC*dA*dT*dT*dT*dT*eA*e[5mC]*eA*eG*eA) [compound 16757]	91	19%	81	9%	–
ISIS 18009: TCATCATTTACTGGTGGAAA, SEQ ID 36; mismatch of 16758 (antisense eT*e[5mC]*eA*eT*e[5mC]*eA*eT*eT*eT*eA*e[5mC]*eT*eG*eG*eT*eG*eG*eA*eA*eA) [reference compound]	–	–	–	–	IC50 (Human IL-5 receptorα; TF-1 cells, read-out: IC50 for reduction of IL-5 receptorα cell surface protein): 10 µM
ISIS 18002: GCCATTCTACCAAGGACTTC, SEQ ID 2; 2′-MOE gapmer, mouse IL-5R exon 9 (listed as DNA, chemistry not fully specified)	–	–	–	–	% inhibition of membrane IL-5 Rα [1]: inhibitor of both forms of IL-5 receptorα
ISIS 16746: ACCCAGCTTTCTGCAAAACA, SEQ ID 31; human IL-5R I13/E14; 2′-MOE pattern (bold) not visible (antisense eA*e[5mC]*e[5mC]*e[5mC]*eA*eG*e[5mC]*eT*eT*eT*e[5mC]*eT*eG*e[5mC]*eA*eA*eA*eA*e[5mC]*eA)	–	over 50%	–	over 50%	–
16747 (antisense ACCCAGCTTTCTGCAAAACA; listed as DNA, chemistry not fully specified) [compound 16747]	66	19.5%	80.5	34%	–
16752 (antisense eT*eA*eA*eA*eT*eG*eA*e[5mC]*eA*eT*e[5mC]*eT*eG*eA*eA*eA*eA*e[5mC]*eA*eG) [compound 16752]	101	–	100.5	–	–
16753 (antisense dT*dA*dA*dA*dT*dG*dA*dC*dA*dT*e[5mC]*eT*eG*eA*eA*eA*eA*e[5mC]*eA*eG) [compound 16753]	98	4%	96	2%	–
ISIS 18011: TCAGCAGTTACTTGTGTAAA, SEQ ID 38; 5-mismatch for 16758 (antisense eT*e[5mC]*eA*eG*e[5mC]*eA*eG*eT*eT*eA*e[5mC]*eT*eT*eG*eT*eG*eT*eA*eA*eA) [reference compound]	–	–	–	–	inhibition of IL-5 receptorα expression (mismatch controls) (Human IL-5 receptorα; TF-1 cells): did not inhibit
16755 (antisense eG*eA*eA*e[5mC]*eA*e[5mC]*eT*eT*eA*e[5mC]*eA*eT*eT*eT*eT*eA*e[5mC]*eA*eG*eA) [compound 16755]	15.5	89.5%	10.5	84%	–
16754 (antisense eT*eA*eA*eA*eT*dG*dA*dC*dA*dT*dC*dT*dG*dA*dA*eA*eA*e[5mC]*eA*eG) [compound 16754]	101	–	100.5	–	–
16751 (antisense eT*e[5mC]*eA*eA*e[5mC]*dA*dT*dT*dA*dC*dC*dT*dC*dA*dT*eA*eG*eT*eT*eA) [compound 16751]	96	–	101	4%	–
